We go through six compounds from patent US20240391870A1 (Arcturus Therapeutics, Inc., priority 2023, published 2024).

One data set concerns factor VII. Description: Factor VII knock down evaluation (LNP with FVII siRNA). Format: in vivo, Balb/C mice. The conditions noted are these: plasma FVII after 48 h vs saline control; for FVII KD % 0.01 mpk: 0.01 mpk i.v.; for FVII KD % 0.03 mpk: 0.03 mpk i.v. The protocol:
Lipid formulations comprising a FVII siRNA further described below were evaluated for their knockdown activity using the protocol of this example. In the FVII evaluation, seven to eight week-old, female Balb/C mice were purchased from Charles River Laboratories (Hollister, CA). The mice were held in a pathogen-free environment and all procedures involving the mice were performed in accordance with guidelines established by the Institutional Animal Care and Use Committee (IACUC). Lipid nanoparticles containing factor VII siRNA were administered intravenously at a dosing volume of 10 mL/kg and two dose levels (0.03 and 0.01 mg/kg). After 48 h, the mice were anesthetized with isoflurane and blood was collected retro-orbitally into Microtainer® tubes coated with 0.109 M sodium citrate buffer (BD Biosciences, San Diego, CA) and processed to plasma. Plasma specimens were tested for factor VII levels immediately or stored at −80° C. for later analysis. Measurement of FVII protein in plasma was determined using the colorimetric Biophen VII assay kit (Aniara Diagnostica, USA). Absorbance was measured at 405 nm and a calibration curve was generated using the serially diluted control plasma to determine levels of factor VII in plasma from treated animals, relative to the saline-treated control animals.

A further data set can be described thus: Mouse plasma stability. The format is in vitro ADME, CD-1 mouse. The note with it: 1 uM lipid. The protocol: Lipid stock solution was prepared by dissolution of the lipid in isopropanol at the concentration of 5 mg/mL. A requisite volume of the lipid-isopropanol solution was then diluted to 100 μM concentration at a total volume of 1.0 mL with in 50:50 (v/v) ethanol/water. Ten microliters of this 100 μM solution was spiked into 1.0 mL of mouse plasma (BioIVT, Cat. No.: MSE00PLNHUNN, CD-1 mouse, anticoagulant: sodium heparin, not filtered) that was pre-warmed to 37° C. and was stirred at 50 rpm with a magnetic stir bar. The starting concentration of lipids in plasma was thus 1 μM. At time points 0, 15, 30, 45, 60 and 120 min, 0.1 mL of the plasma was withdrawn from the reaction mixture and the protein was precipitated by adding 0.9 mL of ice-cold 4:1 (v/v) acetonitrile/methanol with 1 μg/mL of a selected internal standard lipid added. After filtration through a 0.45 micron 96-well filtering plate, the filtrates were analyzed by LC-MS (Thermo Fisher's Vanquish UHPLC—LTQ XL linear ion trap Mass Spectrometer); Waters XBridge BEH Shield RP18 2.5 micron (2.1×100 mm) column with its matching guard column. Mobile phase A was 0.1% formic acid in water, and mobile phase B was 0.1% formic acid in 1:1 (v/v) acetonitrile/methanol. Flow rate was 0.5 ml/min. Elution gradient was: Time 0-1 min: 10% B; 1-6 min: 10%-95% B; 6-8.5 min: 95% B; 8.5-9 min: 95%-10% B; 9-10 min: 10% B. Mass spectrometry was in positive scanning mode from 600-1100 m/z. The peak of the molecular ion of the lipids was integrated in the extracted ion chromatography (XIC) using Xcalibur software (Thermo Fisher). The relative peak area compared to T=0, after normalization by the peak area of the internal standard, was used as the percentage of the lipid remaining at each time point. T1/2 values were calculated using the first-order decay model.

Data set [1] is described as follows: Measured pKa in the indicated formulation. The note with it: for pKa: EPO / pKa: FVII: Table 2; for pKa: EPO: measured in EPO formulation; for pKa: FVII: measured in FVII formulation.
Procedure: Measured pKa values were determined based on the pH measured in the indicated formulation (i.e., EPO or FVII formulation).
Another data set concerns hEPO. Nature of the data set: hEPO mRNA expression evaluation (hEPO-LNPs). The conditions noted are these: serum hEPO after 6 hr; for EPO exprssn (ng/mL) 0.03 mpk: 0.03 mpk i.v.; for EPO exprssn (ng/mL) 0.1 mpk: 0.1 mpk i.v. Format: in vivo, Balb/c mice. The protocol:
Protocol for hEPO mRNA Expression Evaluation
Lipid formulations comprising a hEPO mRNA below were evaluated for their ability to express hEPO in vivo according to the protocol of this example. All animal experiments were conducted using institutionally-approved protocols (IACUC). In this protocol, female Balb/c mice at least 6-8 weeks of age were purchased from Charles River Laboratory. […] After 6 hr, blood was collected with serum separation tubes, and the serum was isolated by centrifugation. Serum hEPO levels were then measured using an ELISA assay (Human Erythropoietin Quantikine IVD ELISA Kit, R&D Systems, Minneapolis, MD).

A short description of data set [2]: In vivo biodegradability assay (lipid in liver). The note with it: mouse liver, 48 h.
Procedure: In vivo biodegradability assay was performed to assess the biodegradability of lipids in the LNP. Briefly, mice were injected with either 0.1 or 0.03 mg/Kg dose and after 24 or 48 hours mice livers were collected. To measure the concentration of lipids in the mouse liver, liver samples were homogenized in appropriate buffer in 1-10 dilution and mixed with the same amount of stabilized plasma. The samples were then mixed with organic solvents spiked with internal standard to precipitate proteins. After centrifugation, supernatant was diluted further with organic solvent before sample analysis by LC-MS. In LC-MS analysis, positive electrospray ionization was used, and multiple reaction monitoring (MRM) parameters were set up to specifically target the lipid analyte and internal standard. Calibration standards were prepared in stabilized plasma and mixed with same amount of homogenization buffer before protein precipitation. Quality control samples with known amounts of lipid was prepared in blank liver homogenate to monitor the precision and accuracy of the assay.

As usually defined, the pKa is the pH at which an ionisable group is half protonated. High values mean a weaker acid or stronger base, low ones a stronger acid or weaker base. As to `CCCCCCCCC(=O)OCC(COC(=O)CCCCCCCC)OC(=O)CCCN(CCCC(=O)OC(COC(=O)CCCCCCCC)COC(=O)CCCCCCCC)C(=O)SCCCN(C)C` [LIPID 1, ((4,4′-((((3-(Dimethylamino)propyl)thio)carbonyl)azanediyl)bis(butanoyl))bis(oxy))bis(propane-2,1,3-triyl)tetranonanoate], the “FVII KD % 0.01 mpk” value with factor VII (Table 1) and in the data set with factor VII (Table 2) was 84% throughout. The “FVII KD % 0.03 mpk” value with factor VII (Table 1) and in the data set with factor VII (Table 2) was 100% in each case. For the same compound, the “Percent remaining in mouse plasma after 2 h” value (from here on “Percent remaining”) in the data set “Mouse plasma stability” (Table 1, mouse plasma 37 C) came to 14%; in “Mouse plasma stability” (Table 2, mouse plasma 37 C), 14%. Moreover, the figures for the pKa in data set [1] (EPO formulation) and in data set [1] (FVII formulation) were 6.4 and 6.64, respectively. In addition, the “pKa: EPO” value in data set [1] stood at 6.4. The “pKa: FVII” value in data set [1] stood at 6.64. The “EPO exprssn (ng/mL) 0.03 mpk” value in the data set on hEPO (Table 1) and in the data set on hEPO (Table 2) was 432 ng/mL throughout. Moreover, the “EPO exprssn (ng/mL) 0.1 mpk” value in the data set with hEPO (Table 1) and in the data set on hEPO (Table 2) was 1413 ng/mL each time. For the same compound, the “In vivo degradability (ng/tissue) at 48h 0.03 mpk” value in data set [2] (Table 1) and in data set [2] (Table 2) was “BLOQ” throughout. The “In vivo degradability (ng/tissue) at 48h 0.1 mpk” value in data set [2] (Table 1) and in data set [2] (Table 2) was “BLOQ” in each case.

Turning to `CCCCCCCCC(=O)OCC(COC(=O)CCCCCCCC)OC(=O)CCCC(CCCC(=O)OC(COC(=O)CCCCCCCC)COC(=O)CCCCCCCC)OC(=O)CCCN(C)C.Cl` [LIPID 3, bis(1,3-bis(Nonanoyloxy)propan-2-yl) 5-((4-(dimethylamino)butanoyl)oxy)nonanedioate HCl Salt], the “FVII KD % 0.01 mpk” value with factor VII (Table 1) and in the data set with factor VII (Table 2) was 51% throughout. The “FVII KD % 0.03 mpk” value in the data set with factor VII (Table 1) and in the data set on factor VII (Table 2) was 87% throughout. Also, the “Percent remaining” value in “Mouse plasma stability” (Table 1, mouse plasma 37 C) was 15%; in “Mouse plasma stability” (Table 2, mouse plasma 37 C), 15%. Besides, the pKa in data set [1] (EPO formulation) came out at 6.41; in data set [1] (FVII formulation), 6.49. For the same compound, in data set [1], the “pKa: EPO” value came out at 6.41. In data set [1], the “pKa: FVII” value is given as 6.49. The “EPO exprssn (ng/mL) 0.03 mpk” value in the data set with hEPO (Table 1) and in the data set with hEPO (Table 2) was 191 ng/mL throughout. For the same compound, the “EPO exprssn (ng/mL) 0.1 mpk” value in the data set with hEPO (Table 1) and in the data set on hEPO (Table 2) was 471 ng/mL throughout. The “In vivo degradability (ng/tissue) at 48h 0.03 mpk” value in data set [2] (Table 1) and in data set [2] (Table 2) was “BLOQ” throughout. For the same compound, the “In vivo degradability (ng/tissue) at 48h 0.1 mpk” value in data set [2] (Table 1) and in data set [2] (Table 2) was “BLOQ” each time.

As to `CCCCCCCC(=O)OCC(COC(=O)CCCCCCC)OC(=O)CCCC(CCCC(=O)OC(COC(=O)CCCCCCC)COC(=O)CCCCCCC)SC(=O)CCCN(C)C` [LIPID 4, bis(1,3-bis(Octanoyloxy)propan-2-yl) 5-((4-(dimethylamino)butanoyl)thio)nonanedioate], the “FVII KD % 0.01 mpk” value with factor VII (Table 1) and with factor VII (Table 2) was 71% throughout. For the same compound, the “FVII KD % 0.03 mpk” value in the data set with factor VII (Table 1) and in the data set with factor VII (Table 2) was 33% in each case. The “Percent remaining” value in “Mouse plasma stability” (Table 1, mouse plasma 37 C) was 13%; in the data set “Mouse plasma stability” (Table 2, mouse plasma 37 C) it was 13%. In addition, in data set [1] (EPO formulation), the pKa came out at 6.22. Besides, the “pKa: EPO” value in data set [1] is recorded as “(6.22/ND)”. Moreover, the “EPO exprssn (ng/mL) 0.03 mpk” value in the data set on hEPO (Table 1) and with hEPO (Table 2) was 392 ng/mL throughout. In addition, the “EPO exprssn (ng/mL) 0.1 mpk” value with hEPO (Table 1) and in the data set with hEPO (Table 2) was 1108 ng/mL in each case. For the same compound, the “In vivo degradability (ng/tissue) at 48h 0.03 mpk” value in data set [2] (Table 1) and in data set [2] (Table 2) was “BLOQ” each time. Further, the “In vivo degradability (ng/tissue) at 48h 0.1 mpk” value in data set [2] (Table 1) and in data set [2] (Table 2) was “BLOQ” in each case.

On to `CCCCCCCCC(=O)OCC(COC(=O)CCCCCCCC)OC(=O)CCC(CCC(=O)OC(COC(=O)CCCCCCCC)COC(=O)CCCCCCCC)OC(=O)CCCN(C)C` [LIPID 5, bis(1,3-bis(Nonanoyloxy)propan-2-yl) 4-((4-(dimethylamino)butanoyl)oxy)heptanedioate], for which the “FVII KD % 0.01 mpk” value in the data set with factor VII (Table 1) and in the data set with factor VII (Table 2) was 90% throughout. Besides, the “FVII KD % 0.03 mpk” value with factor VII (Table 1) and in the data set with factor VII (Table 2) was 62% throughout. The “Percent remaining” value in the data set “Mouse plasma stability” (Table 1, mouse plasma 37 C) turned out to be 40%; in the data set “Mouse plasma stability” (Table 2, mouse plasma 37 C), 40%. Further, the pKa in data set [1] (EPO formulation) amounted to 6.37; in data set [1] (FVII formulation), 6.54. Moreover, in data set [1], the “pKa: EPO” value is on record as 6.37. Also, in data set [1], the “pKa: FVII” value is 6.54. The “EPO exprssn (ng/mL) 0.03 mpk” value in the data set on hEPO (Table 1) and in the data set with hEPO (Table 2) was 87 ng/mL each time. The “EPO exprssn (ng/mL) 0.1 mpk” value in the data set with hEPO (Table 1) and in the data set with hEPO (Table 2) was 533 ng/mL each time. The “In vivo degradability (ng/tissue) at 48h 0.03 mpk” value in data set [2] (Table 1) and in data set [2] (Table 2) was “BLOQ” throughout. Further, the “In vivo degradability (ng/tissue) at 48h 0.1 mpk” value in data set [2] (Table 1) and in data set [2] (Table 2) was “BLOQ” throughout.

With `CCCCCCCCC(=O)OCC(COC(=O)CCCCCCCC)OC(=O)CN(CC(=O)OC(COC(=O)CCCCCCCC)COC(=O)CCCCCCCC)C(=O)SCCCN(C)C` [LIPID 8, ((2,2′-((((3-(Dimethylamino)propyl)thio)carbonyl)azanediyl)bis(acetyl))bis(oxy))bis(propane-2,1,3-triyl)tetranonanoate], the “Percent remaining” value was found to be 81% in “Mouse plasma stability” (Table 1, mouse plasma 37 C) and 81% in the data set “Mouse plasma stability” (Table 2, mouse plasma 37 C). Further, the pKa in data set [1] (EPO formulation) worked out at 6.5. In addition, in data set [1], the “pKa: EPO” value is “(6.50/ND)”. Also, the “EPO exprssn (ng/mL) 0.03 mpk” value with hEPO (Table 1) and in the data set with hEPO (Table 2) was 169 ng/mL throughout. Besides, the “EPO exprssn (ng/mL) 0.1 mpk” value with hEPO (Table 1) and with hEPO (Table 2) was 701 ng/mL throughout. Besides, the “In vivo degradability (ng/tissue) at 48h 0.03 mpk” value in data set [2] (Table 1) and in data set [2] (Table 2) was “BLOQ” in each case. The “In vivo degradability (ng/tissue) at 48h 0.1 mpk” value in data set [2] (Table 1) and in data set [2] (Table 2) was “BLOQ” throughout.

For the compound `CCCCCC(C)(C)C(=O)OCC(COC(=O)C(C)(C)CCCCC)OC(=O)CCCN(CCCC(=O)OC(COC(=O)C(C)(C)CCCCC)COC(=O)C(C)(C)CCCCC)C(=O)SCCCN(C)C` [LIPID 19, ((4,4′-((((3-(Dimethylamino)propyl)thio)carbonyl)-azanediyl)bis(butanoyl))bis(oxy))bis(propane-2,1,3-triyl)tetrakis(2,2-dimethylheptanoate)], the “Percent remaining” value in “Mouse plasma stability” (Table 2, mouse plasma 37 C) amounted to 100%. Further, in data set [1] (EPO formulation), the pKa is 6.27. The “pKa: EPO” value in data set [1] is listed as “(6.27/ND)”. For the same compound, the “EPO exprssn (ng/mL) 0.1 mpk” value in the data set on hEPO (Table 2) is recorded as 958 ng/mL. In addition, in data set [2] (Table 1), the “In vivo degradability (ng/tissue) at 48h 0.03 mpk” value was less than 340 ng/tissue and the “In vivo degradability (ng/tissue) at 48h 0.1 mpk” value came out at 847 ng/tissue. For the same compound, in data set [2] (Table 2), the “In vivo degradability (ng/tissue) at 48h 0.03 mpk” value is given as less than 340 ng/tissue and the “In vivo degradability (ng/tissue) at 48h 0.1 mpk” value worked out at 847 ng/tissue.
